According to US20100056596A1, “RESISTANCE-REPELLENT RETROVIRAL PROTEASE INHIBITORS” (Sequoia Pharmaceuticals, priority 2004, published 2010):
Where two headings read alike, the source gives them in different places.

Assays:
[1] = test system: HIV-1 isolates, Mutant 9; assay: In vitro drug sensitivity of HIV-1 laboratory isolates, Mutant 9; assay type: cell-based
Procedure: (§1) In Vitro Drug Sensitivity of HIV-1 Laboratory Isolates to PIs
(§2) The sensitivities of HIV-1 isolates against compounds of the invention were determined as previously described with minor modifications (Shiraska et al., Proc. Natl. Acad. Sci. USA, 92, 2398-2402 (1995)).

[2] = molecular target: HIV-1 protease Mutant 8 (Human immunodeficiency virus type 1, UniProt P04585); assay: Ki against HIV-1 protease Mutant 8; assay type: biochemical
[3] = molecular target: HIV-1 protease Mutant 9 (Human immunodeficiency virus type 1, UniProt P04585); assay: Ki against HIV-1 protease Mutant 9; assay type: biochemical
[4] = test system: HIV-1 isolates, WT; assay: In vitro drug sensitivity of HIV-1 laboratory isolates, WT; assay type: cell-based
Procedure: as §1, §2

[5] = molecular target: T1, wild type HIV-1 protease (Human immunodeficiency virus type 1 group M subtype B, UniProt P04585); assay: Ki against wild type (WT) HIV-1 protease; assay type: biochemical
T1 construct: over 45 of the 99 amino acids of the HIV protease monomer

[6] = test system: HIV-1 isolates, Mutant 8; assay: In vitro drug sensitivity of HIV-1 laboratory isolates, Mutant 8; assay type: cell-based
Procedure: as §1, §2

[7] = Human immunodeficiency virus 1, read-out: IC50 Mutant 9
[8] = Human immunodeficiency virus 1, HIV-1 isolate WT
[9] = Human immunodeficiency virus 1, read-out: IC50 Mutant 8

| SMILES | IC50 [1, 7] | Ki ([2]; HIV-1 protease Mutant 8) | Ki ([3]; HIV-1 protease Mutant 9) | IC50 [4, 8] | Ki ([5]; wild type HIV-1 protease) | IC50 [6, 9] | IC50 ([1]; Mutant 9, read-out: IC50 Mutant 9) | Ki ([2]; Mutant 8) | Ki ([3]; Mutant 9) | IC50 ([4]; WT) | Ki ([5]; WT) | IC50 ([6]; Mutant 8, read-out: IC50 Mutant 8) | IC50 ([4]; Human immunodeficiency virus 1) |
| --- | --- | --- | --- | --- | --- | --- | --- | --- | --- | --- | --- | --- | --- |
| CCCC[S+]([O-])Cc1noc2ccc(S(=O)(=O)N(CC(C)C)CC(O)C(Cc3ccccc3)NC(=O)OC3COC4OCCC34)cc12 (stereo not drawn) [Compound 208] | 60 nM | < 0.3 nM | < 0.1 nM | 3.9 nM | < 0.1 nM | 36 nM | – | – | – | – | – | – | – |
| CC(C)CN(C[C@@H](O)[C@H](Cc1ccccc1)NC(=O)OC1COC2OCCC12)S(=O)(=O)c1ccc2occ(CNC(=O)c3ccco3)c2c1 (stereo partly drawn) [Compound 125] | – | – | – | – | – | – | 31 nM | < 0.3 nM | < 0.1 nM | 5 nM | < 0.1 nM | 9 nM | – |
| CC(C)CN(CC(O)C(Cc1ccccc1)NC(=O)OC1COC2OCCC12)S(=O)(=O)c1ccc2onc(CNC(=O)OC(C)C)c2c1 (stereo not drawn) [Compound 212] | > 400 nM | < 0.3 nM | 0.34 nM | 5 nM | < 0.1 nM | 30 nM | – | – | – | – | – | – | – |
| CC(C)CN(CC(O)C(Cc1ccccc1)NC(=O)OC1COC2OCCC12)S(=O)(=O)c1ccc2onc(COC(=O)C(C)(C)C)c2c1 (stereo not drawn) [Compound 218] | 80 nM | < 0.3 nM | 2 nM | 11 nM | < 0.1 nM | 18 nM | – | – | – | – | – | – | – |
| CC(C)CN(CC(O)C(Cc1ccccc1)NC(=O)OC1COC2OCCC12)S(=O)(=O)c1ccc2onc(CS(C)(=O)=O)c2c1 (stereo not drawn) [Compound 243] | 120 nM | < 0.3 nM | 0.96 nM | 8.2 nM | < 0.1 nM | 24 nM | – | – | – | – | – | – | – |
| CC(C)CN(CC(O)C(Cc1ccccc1)NC(=O)OC1COC2OCCC12)S(=O)(=O)c1ccc2onc(COCC(F)(F)F)c2c1 (stereo not drawn) [Compound 246] | 105 nM | < 0.3 nM | 1.1 nM | 2.7 nM | < 0.1 nM | 6.8 nM | – | – | – | – | – | – | – |
| CCCOC(=O)NCc1noc2ccc(S(=O)(=O)N(CC(C)C)CC(O)C(Cc3ccccc3)NC(=O)OC3COC4OCCC34)cc12 (stereo not drawn) [Compound 222] | 45 nM | < 0.3 nM | 0.19 nM | 3 nM | < 0.1 nM | 12 nM | – | – | – | – | – | – | – |
| COCc1coc2ccc(S(=O)(=O)N(CC(C)C)CC(O)C(Cc3ccccc3)NC(=O)OC3COC4OCCC34)cc12 (stereo not drawn) [Compound 123] | 240 nM | – | – | – | – | 19 nM | – | < 0.3 nM | 0.22 nM | – | 0.13 nM | – | 4 nM |
| CC(C)CN(CC(O)C(Cc1ccccc1)NC(=O)OC1COC2OCCC12)S(=O)(=O)c1ccc2[nH]nc(NC3CCCCC3)c2c1 (stereo not drawn) [Compound 304] | 100 nM | – | – | – | – | 12 nM | – | < 0.3 nM | 0.93 nM | – | < 0.1 nM | – | 6.1 nM |
| CC(C)CN(CC(O)C(Cc1ccccc1)NC(=O)OC1COC2OCCC12)S(=O)(=O)c1ccc2onc(CNC(=O)C(C)C)c2c1 (stereo not drawn) [Compound 220] | 60 nM | < 0.3 nM | 0.14 nM | 7 nM | < 0.1 nM | 12 nM | – | – | – | – | – | – | – |
| CC(C)CN(CC(O)C(Cc1ccccc1)NC(=O)OC1COC2OCCC12)S(=O)(=O)c1ccc2occc2c1 (stereo not drawn) [Compound 101, {3-[(Benzofuran-5-sulfonyl)-isobutyl-amino]-1-benzyl-2-hydroxy-propyl}-carbamic acid hexahydro-furo[2,3-b]furan-3-yl ester] | 120 nM | – | – | – | – | 16 nM | – | < 0.3 nM | 0.5 nM | – | < 0.1 nM | – | 1.6 nM |
| CCOC(=O)C(C)NCc1noc2ccc(S(=O)(=O)N(CC(C)C)CC(O)C(Cc3ccccc3)NC(=O)OC3COC4OCCC34)cc12 (stereo not drawn) [Compound 206] | 160 nM | < 0.3 nM | 0.33 nM | 5 nM | < 0.1 nM | 30 nM | – | – | – | – | – | – | – |
| CCCCNc1n[nH]c2ccc(S(=O)(=O)N(CC(C)C)CC(O)C(Cc3ccccc3)NC(=O)OC3COC4OCCC34)cc12 (stereo not drawn) [Compound 308] | 310 nM | – | – | – | – | 30 nM | – | < 0.3 nM | 1.8 nM | – | < 0.1 nM | – | 8 nM |
| CC(C)CN(CC(O)C(Cc1ccccc1)NC(=O)OC1COC2OCCC12)S(=O)(=O)c1ccc2onc(CN)c2c1 (stereo not drawn) [Compound 203] | 120 nM | < 0.3 nM | 0.71 nM | 22 nM | < 0.1 nM | 70 nM | – | – | – | – | – | – | – |
| Cc1n[nH]c2ccc(S(=O)(=O)N(CC(C)C)CC(O)C(Cc3ccccc3)NC(=O)OC3COC4OCCC34)cc12 (stereo not drawn) [Compound 301, {1-Benzyl-2-hydroxy-3-[isobutyl-(3-methyl-1H-indazole-5-sulfonyl)-amino]-propyl}-carbamic acid hexahydro-furo[2,3-b]furan-3-yl ester] | 80 nM | – | – | – | – | 70 nM | – | < 0.3 nM | 0.23 nM | – | < 0.1 nM | – | 8 nM |
